# Source: US20060039869A1, “Intranasal delivery of antipsychotic drugs” (priority 2004, published 2006)
# Several values for one entry are separate records, joined by “and”; a condition that tells them apart may be missing. Equal values may be shown once. Read-outs that look alike come from different tables or passages of the source.
# Experiments:
# [1] = cited from earlier work
# [2] = for Tmax: healthy subjects n=4, median (range)
# clinical = details: human, plasma, 2.5 mg; for Cmax: n=4, mean (CV %)
compound,measurement,setting,value
"O=C(CCCN1CCC(O)(c2ccc(Cl)cc2)CC1)c1ccc(F)cc1 [haloperidol lactate, haloperidol]",time of peak plasma concentration,[1]; intramuscular administration,approximately 20 minutes
same,absolute bioavailability,[1]; oral administration,approximately 65%
same,Tmax,[2]; IM 2.5 mg,0.625 (0.25-16) h
same,Cmax after intranasal dose compared with intramuscular dose,[2]; IN 2.5 mg vs IM 2.5 mg,slightly higher
same,Tmax,[2]; IN 2.5 mg,0.25 (0.12-0.5) h
same,"Cmax, individual subjects","[2]; IN 2.5 mg, single subjects",16.2 ng/mL and 7.5 to 7.9 ng/mL
same,"time at which haloperidol concentrations reached a peak, individual subjects","[2]; IN 2.5 mg, single subjects",7.5 min and 15 min and 30 min
same,"half-lives, intravenous and intranasal",[2]; IV vs IN 2.5 mg,similar
same,AUC(0-inf),"clinical; both, im",81.8 ng·h/mL
same,AUC(0-t),"clinical; both, im",59.7 ng·h/mL
same,MRT,"clinical; both, im",16.1 h
same,Tmax,"clinical; both, im",0.625 h
same,Vd/F,"clinical; both, im",1360 L
same,half-life,"clinical; both, im",28.8 h
same,Cmax,"clinical; both, im, IM 2.5 mg",8.42 ng/mL
same,bioavailability,"clinical; both, intramuscular",134%
same,AUC(0-inf),"clinical; both, iv",60.4 ng·h/mL
same,AUC(0-t),"clinical; both, iv",50.8 ng·h/mL
same,MRT,"clinical; both, iv",12.7 h
same,Tmax,"clinical; both, iv",0.25 h
same,Vd,"clinical; both, iv",934 L
same,half-life,"clinical; both, iv",17.1 h
same,Cmax,"clinical; both, iv, IV 2.5 mg",23.3 ng/mL
same,AUC(0-inf),"clinical; both, other: intranasal",37.9 ng·h/mL
same,AUC(0-t),"clinical; both, other: intranasal",31.7 ng·h/mL
same,MRT,"clinical; both, other: intranasal",12.9 h
same,Tmax,"clinical; both, other: intranasal",0.25 h
same,Vd/F,"clinical; both, other: intranasal",1580 L
same,bioavailability,"clinical; both, other: intranasal",63.8%
same,half-life,"clinical; both, other: intranasal",16.9 h
same,Cmax,"clinical; both, other: intranasal, IN 2.5 mg",9.8 ng/mL
same,Tmax,clinical; im,16 h
